From US20260209189A1, “ISOXAZOLINE-SUBSTITUTED BENZAMIDE COMPOUND AND APPLICATION THEREOF” (priority 2022, published 2026)
Read-outs that look alike come from different tables or passages of the source.

Assays:
Type in all cases: in vivo
Aphis gossypii = assay: Assay of insecticidal activity of compositions (synergism), zucchini leaves, adult aphid; conditions: for pest or weed control at 5 µg/mL: B 5 ppm
Protocol: (§1) The compound of the present invention was dissolved in acetone, and then diluted with water into liquids with gradients of different concentrations (ppm). Corn leaves were soaked in liquids of different concentrations for about 20 seconds, air-dried and then placed in petri dishes where 3rd instar Spodoptera frugiperda were placed, respectively; kale leaves were soaked in liquids of different concentrations for about 20 seconds, air-dried and then placed in petri dishes where 3rd instar Spodoptera frugiperda were placed, respectively; peanut leaves were soaked in liquids of different concentrations for about 20 seconds, air-dried and then placed in petri dishes where Tetranychus urticae (adult mite) and Aphis craccivora (adult aphid) were placed, respectively; water bamboo leaves were soaked in liquids of different concentrations for about 20 seconds, air-dried and then placed in petri dishes where 4th instar Chilo suppressalis were placed, respectively. Each petri dish was placed with 10 insects, covered and then stored at 25° C. in a constant temperature room. The number of dead insects were checked after 48 h. The dead insect rate was calculated by the formula: Death rate (%)=(Number of dead insects/Number of test insects)×100. Furthermore, the experiment was conducted in two replications.
• Test targets: Spodoptera frugiperda (3rd instar) and Aphis gossypii (adult aphid)
Referring to the above-mentioned Insecticidal activity assay, when the test target was Aphis gossypii, the zucchini leaves were selected.
(§2) Different ratios within the selected ratio range were set for toxicity determination, and the optimal ratio was selected according to synergistic effects. When the synergistic effect >0, it indicated a synergistic effect; when the synergistic effect is close to 0, it indicated an addition effect; when the synergistic effect <0, it indicated an antagonistic effect.
(§3) [formula] • wherein, P1, P2—Death rate by each individual agent in a mixed formulation.

Spodoptera frugiperda [1] = assay: Assay of insecticidal activity of compositions (synergism), 3rd instar; conditions: for pest or weed control at 1 µg/mL: B 1 ppm; for pest or weed control at 50 µg/mL: B 50 ppm
Protocol: as §1
• Test targets: Spodoptera frugiperda (3rd instar) and Aphis gossypii (adult aphid) […]
as §2, §3

Spodoptera exigua = assay: Insecticidal activity assay, kale leaf dip, 3rd instar larvae; conditions: liquid concentration 0.3 ppm, 48 h
Aphis craccivora = assay: Insecticidal activity assay, peanut leaf dip, adult aphid; conditions: liquid concentration 8.1 ppm, 48 h
Protocol: as §1

Tetranychus urticae = assay: Insecticidal activity assay, peanut leaf dip, adult mite; conditions: 48 h
Protocol: as §1

Spodoptera frugiperda [2] = assay: Insecticidal activity assay, corn leaf dip, 3rd instar larvae; conditions: liquid concentration 0.3 ppm, 48 h
Protocol: as §1

[3] = in Cucurbita pepo, 48 h, B 1 ppm, read-out: Death rate by individual B
[4] = 48 h, read-out: Death rate by individual B
[5] = in Cucurbita pepo, 48 h, read-out: Death rate by individual B
[6] = 48 h, B 2 ppm, read-out: Death rate by individual B

In the case of C/C(=N\C#N)N(C)Cc1ccc(Cl)nc1 [Acetamiprid, reference compound], the pest or weed control at 1 µg/mL (Aphis gossypii; [3]) is reported as 52%.
CCn1nc(C)cc1/C(OC(=O)C(C)(C)C)=C(/C#N)c1ccc(C(C)(C)C)cc1 [Cyetpyrafen, reference compound] was tested, and the “Death rate by individual B” value (Spodoptera frugiperda [1]; B 100 ppm) was 30%.
COC(=O)N(C(=O)N1CO[C@@]2(C(=O)OC)Cc3cc(Cl)ccc3C2=N1)c1ccc(OC(F)(F)F)cc1 [Indoxacarb, reference compound] was tested, and the “Death rate by individual B” value (Spodoptera frugiperda [1]; B 0.5 ppm) was 36%.
Molecule COC(=O)C(NC(=O)c1ccc(C2=NOC(c3cc(Cl)c(Cl)c(C(F)(F)F)c3)(C(F)(F)F)C2)cc1C)C(C)C (stereo not drawn) [Compound 111] has a Death rate (Spodoptera exigua) of 60% and a Death rate (Aphis craccivora) of 40%.
In the case of Emamectin-benzoate [reference compound], the “Death rate by individual B” value (Spodoptera frugiperda [1]; B 2 ppm) is reported as 37%.
In the case of N#Cc1nn(-c2c(Cl)cc(C(F)(F)F)cc2Cl)c(N)c1[S+]([O-])C(F)(F)F (stereo not drawn) [Fipronil, reference compound], the pest or weed control at 1 µg/mL (Spodoptera frugiperda [1]; [4]) is reported as 43%.
With CN/C(=N\[N+](=O)[O-])NCc1cnc(Cl)s1 [Clothianidin, reference compound] the pest or weed control at 5 µg/mL (Aphis gossypii; [5]) was 42%.
In the case of CC(c1ccc(C(F)(F)F)nc1)S(C)(=O)=NC#N (stereo not drawn) [Sulfoxaflor, reference compound], the pest or weed control at 2 µg/mL (Aphis gossypii; in Cucurbita pepo, 48 h, B 2 ppm, read-out: Death rate by individual B) is reported as 46%.
With Spinetoram [reference compound] the “Death rate by individual B” value (Spodoptera frugiperda [1]; B 0.5 ppm) was 62%.
CC1=NNC(=O)N(/N=C/c2cccnc2)C1 [Pymetrozine, reference compound] showed a pest or weed control at 50 µg/mL (Spodoptera frugiperda [1]; [4]) of 30%.
Work on COC(=O)C(C)NC(=O)c1ccc(C2=NOC(c3cc(F)c(F)c(C(F)(F)F)c3)(C(F)(F)F)C2)cc1C (mixture of isomers) [181 (2R)] yielded a Death rate (Tetranychus urticae; liquid concentration 8.1 ppm) of 70%.
COC(=O)C(C)NC(=O)c1ccc(C2=NOC(c3cc(Cl)c(Cl)c(C(F)(F)F)c3)(C(F)(F)F)C2)cc1C(C)C (mixture of isomers) [141 (2R)] was tested, and the Death rate (Spodoptera frugiperda [2]) was 90%.
For CNC(=O)c1cc(C#N)cc(C)c1NC(=O)c1cc(Br)nn1-c1ncccc1Cl [Cyantraniliprole, reference compound], the pest or weed control at 5 µg/mL (Aphis gossypii; [5]) was 36%.
With C[C@]1(COC(=O)C2CC2)[C@@H]2C[C@H](O)[C@@]3(C)Oc4cc(-c5cccnc5)oc(=O)c4[C@H](O)[C@@H]3[C@@]2(C)CC[C@@H]1OC(=O)C1CC1 [Afidopyropen, reference compound] the “Death rate by individual B” value (Aphis gossypii; B 1 ppm) was 68%.
Work on COC(=O)C(NC(=O)c1ccc(C2=NOC(c3cc(Cl)c(Cl)c(C(F)(F)F)c3)(C(F)(F)F)C2)cc1C)C1CC1 (stereo not drawn) [Compound 118] yielded a Death rate (Spodoptera exigua) of 60% and a Death rate (Aphis craccivora) of 40%.
COC(=O)C(NC(=O)c1ccc(C2=NOC(c3cc(Cl)c(Cl)c(C(F)(F)F)c3)(C(F)(F)F)C2)cc1C)OC (stereo not drawn) [Compound 124] gave a Death rate (Spodoptera frugiperda [2]) of 80%, a Death rate (Spodoptera exigua) of 70% and a Death rate (Tetranychus urticae; liquid concentration 8.1 ppm) of 77%.
For Cc1cc(C2=NOC(c3cc(Cl)c(Cl)c(C(F)(F)F)c3)(C(F)(F)F)C2)ccc1C(=O)N[C@H](C)C(=O)O (stereo partly drawn) [Compound 151 (2R)], the Death rate (Tetranychus urticae; liquid concentration 8.1 ppm) was 100%.
COC(=O)[C@@H](C)N(C)C(=O)c1ccc(C2=NOC(c3cc(Cl)c(Cl)c(C(F)(F)F)c3)(C(F)(F)F)C2)cc1C (stereo partly drawn) [Compound 4 (2R)] gave a Death rate (Spodoptera frugiperda [2]) of 100%.
COP(=O)(NC(C)=O)SC (stereo not drawn) [Acephate, reference compound] was tested, and the pest or weed control at 300 µg/mL (Spodoptera frugiperda [1]; [4]) was 38%.
With Abamectin [reference compound] the “Death rate by individual B” value (Spodoptera frugiperda [1]; B 100 ppm) was 25%.
Cc1cc(C2=NOC(c3cc(Cl)c(Cl)c(C(F)(F)F)c3)(C(F)(F)F)C2)ccc1C(=O)NC(C)C(=O)OCCO (mixture of isomers) [57 (2R)] showed a Death rate (Tetranychus urticae; liquid concentration 8.1 ppm) of 90%.
O=[N+]([O-])NC1=NCCN1Cc1ccc(Cl)nc1 [Imidacloprid, reference compound] was tested, and the pest or weed control at 1 µg/mL (Aphis gossypii; [3]) was 53%.
Work on Cc1cc(C2=NOC(c3cc(Cl)c(Cl)c(C(F)(F)F)c3)(C(F)(F)F)C2)ccc1C(=O)NC(C)C(=O)O [Compound 151 (5S, 2R)] yielded a Death rate (Tetranychus urticae; liquid concentration 8.1 ppm) of 100%.
With CCN(C(=O)c1cnn(C(C)C(C)C)c1C)c1ccnnc1 (stereo not drawn) [dimpropyridaz, Dimpropyridaz, reference compound] the “Death rate by individual B” value (Aphis gossypii; B 2 ppm) was 48%.
For CCc1nn(C)c(C(=O)NCc2ccc(Oc3ccc(C)cc3)cc2)c1Cl [Tolfenpyrad, reference compound], the pest or weed control at 1 µg/mL (Aphis gossypii; [3]) was 35%.
Molecule C=CCOC(=O)C(C)NC(=O)c1ccc(C2=NOC(c3cc(Cl)c(Cl)c(C(F)(F)F)c3)(C(F)(F)F)C2)cc1C (mixture of isomers) [41 (2R)] has a Death rate (Tetranychus urticae; liquid concentration 0.9 ppm) of 75%.
Work on CCOC(=O)[C@@H](C)NC(=O)c1ccc(C2=NOC(c3cc(Cl)c(Cl)c(C(F)(F)F)c3)(C(F)(F)F)C2)cc1C (stereo partly drawn) [Compound 30 (2R)] yielded a Death rate (Spodoptera frugiperda [2]) of 90% and a Death rate (Tetranychus urticae; liquid concentration 0.9 ppm) of 80%.
For O=c1c(-c2cccc(C(F)(F)F)c2)c([O-])[n+](Cc2cncnc2)c2ccccn12 [Triflumezopyrim, reference compound], the “Death rate by individual B” value (Spodoptera frugiperda [1]; B 100 ppm) was 33%.
For CCOC(=O)OC1=C(c2c(C)cc(Cl)cc2C)C(=O)N(C)C12CCN(OC)CC2 [Spiropidion, reference compound], the “Death rate by individual B” value (Spodoptera frugiperda [1]; B 2 ppm) was 39%.
CN1COCN(Cc2cnc(Cl)s2)/C1=N\[N+](=O)[O-] [Thiamethoxam, reference compound] showed a pest or weed control at 1 µg/mL (Aphis gossypii; [3]) of 64%.
O=C(NC(=O)c1c(F)cccc1F)Nc1cc(Cl)c(OC(F)(F)C(F)C(F)(F)F)cc1Cl (stereo not drawn) [Lufenuron, reference compound] showed a pest or weed control at 50 µg/mL (Spodoptera frugiperda [1]; [4]) of 38%.
In the case of CCOCn1c(-c2ccc(Cl)cc2)c(C#N)c(Br)c1C(F)(F)F [Chlorfenapyr, reference compound], the pest or weed control at 50 µg/mL (Spodoptera frugiperda [1]; [4]) is reported as 59%.
With Cc1cc(C)c(C2=C(OC(=O)CC(C)(C)C)C3(CCCC3)OC2=O)c(C)c1 [Spiromesifen, reference compound] the “Death rate by individual B” value (Spodoptera frugiperda [1]; B 100 ppm) was 49%.
For C#CCOC(=O)C(C)NC(=O)c1ccc(C2=NOC(c3cc(Cl)c(Cl)c(C(F)(F)F)c3)(C(F)(F)F)C2)cc1C (mixture of isomers) [43 (2R)], the Death rate (Tetranychus urticae; liquid concentration 0.9 ppm) was 85%.
CC[S+]([O-])c1c(C#N)nn(-c2c(Cl)cc(C(F)(F)F)cc2Cl)c1N (stereo not drawn) [Ethiprole, reference compound] was tested, and the pest or weed control at 5 µg/mL (Aphis gossypii; [5]) was 33%.
In the case of COC(=O)C(C)NC(=O)c1ccc(C2=NOC(c3cc(Cl)c(OC)c(C(F)(F)F)c3)(C(F)(F)F)C2)cc1C (mixture of isomers) [183 (2R)], the Death rate (Spodoptera frugiperda [2]) is reported as 100% and the Death rate (Spodoptera exigua) is reported as 100%.
COC(=O)C(CC(N)=O)NC(=O)c1ccc(C2=NOC(c3cc(Cl)c(Cl)c(C(F)(F)F)c3)(C(F)(F)F)C2)cc1C (mixture of isomers) [179 (2R)] gave a Death rate (Tetranychus urticae; liquid concentration 8.1 ppm) of 80%.
With CC(C)c1cc(Oc2ccccc2)cc(C(C)C)c1NC(=S)NC(C)(C)C [Diafenthiuron, reference compound] the pest or weed control at 100 µg/mL (Spodoptera frugiperda [1]; [4]) was 49%.
With CC(C)N1C(=O)N(c2ccccc2)CS/C1=N\C(C)(C)C [Buprofezin, reference compound] the pest or weed control at 10 µg/mL (Spodoptera frugiperda [1]; 48 h, B 10 ppm, read-out: Death rate by individual B) was 36%.
COC(=O)C(C)NC(=O)c1ccc(C2=NOC(c3cc(Cl)c(SC)c(C(F)(F)F)c3)(C(F)(F)F)C2)cc1C (mixture of isomers) [187 (2R)] was tested, and the Death rate (Tetranychus urticae; liquid concentration 8.1 ppm) was 63%.
Molecule COC(=O)C(CCSC)NC(=O)c1ccc(C2=NOC(c3cc(Cl)c(Cl)c(C(F)(F)F)c3)(C(F)(F)F)C2)cc1C (mixture of isomers) [180 (2R)] has a Death rate (Tetranychus urticae; liquid concentration 8.1 ppm) of 45%.
For CC1(C)[C@H](C(=O)O[C@H](C#N)c2cccc(Oc3ccccc3)c2)[C@@H]1/C=C(\Cl)C(F)(F)F (racemic) [lambda-cyhalothrin, lambda-Cyhalothrin, reference compound], the pest or weed control at 2 µg/mL (Spodoptera frugiperda [1]; [6]) was 41%.
Molecule Cc1c(COC(=O)[C@@H]2[C@H](/C=C(\Cl)C(F)(F)F)C2(C)C)cccc1-c1ccccc1 (racemic) [Bifenthrin, reference compound] has a pest or weed control at 1 µg/mL (Spodoptera frugiperda [1]; [4]) of 22%.
COC(=O)C(C)NC(=O)c1ccc(C2=NOC(c3cc(Cl)c(OC)c(C(F)(F)F)c3)(C(F)(F)F)C2)cc1C [Compound 183 (5S, 2R)] was tested, and the Death rate (Tetranychus urticae; liquid concentration 8.1 ppm) was 70%.
With CNC(=O)c1cc(Cl)cc(C)c1NC(=O)c1cc(Br)nn1-c1ncccc1Cl [Chlorantraniliprole, reference compound] the pest or weed control at 0.5 µg/mL (Spodoptera frugiperda [1]; 48 h, B 0.5 ppm, read-out: Death rate by individual B) was 50%.
COC(=O)C(Cc1ccccc1)NC(=O)c1ccc(C2=NOC(c3cc(Cl)c(Cl)c(C(F)(F)F)c3)(C(F)(F)F)C2)cc1C (mixture of isomers) [131 (2R)] was tested, and the Death rate (Tetranychus urticae; liquid concentration 8.1 ppm) was 80%.
With CCOC(=O)OC1=C(c2cc(C)ccc2C)C(=O)N[C@]12CC[C@@H](OC)CC2 [Spirotetramat, reference compound] the pest or weed control at 100 µg/mL (Spodoptera frugiperda [1]; 48 h, B 100 ppm, read-out: Death rate by individual B) was 47%.
Work on COc1cccc(C(=O)NN(C(=O)c2cc(C)cc(C)c2)C(C)(C)C)c1C [Methoxyfenozide, reference compound] yielded a pest or weed control at 2 µg/mL (Spodoptera frugiperda [1]; [6]) of 31%.
